Laboratory results from patent publication US6833358B1, “Lacrimal secretion promoters or eye drops for treating keratoconjunctival failure containing as the active ingredient natriuretic peptides” (Santen Pharmaceutical Co., Ltd., priority 1998, dated 2004).
No end group written: not given here.

Tested on: Male Japanese white rabbits
Assay: Schirmer test paper method: amount of lacrimal fluid after instillation
Format: in vivo, rabbit
Description: The Schirmer test paper method, which is used for measurement of an amount of a human lacrimal fluid, is one method of measuring a change in an amount of a lacrimal fluid of a normal animal in instilling a drug. In the present invention, an amount of a lacrimal fluid in instilling the natriuretic peptide was measured by using the Schirmer test paper method, and an effect of the natriuretic peptide on a rate of lacrimal secretion was studied.
Male Japanese white rabbits, body weight; 1.8 to 2.2 kg, were used for the experiment.
The natriuretic peptide (0.56 mg) was dissolved in sterile purified water to prepare a 0.1% solution just before using. This solution is referred to as a solution of a test drug.
The solution of the test drug (50 μl) was instilled into a left eye once. […]
Amounts of the lacrimal fluid were measured using Schirmer test paper with respect to the eye to which the drug was administered and the eye to which no drug was administered before administering the drug and after a prescribed period of time from the instillation. […] One minute later, length of a wet portion (Schirmer value, mm) of the test paper was measured from the fold. […]
The action of the solution of the test drug on the rate of the lacrimal secretion at a time of T hours after the instillation is represented by the increment of the lacrimal fluid (mm) determined by the following equation. […]

## Human CNP-22: C-type natriuretic peptide (human) consisting of 22 amino acids; purchased from Peptide Research Institute (GLSKGCFGLKLDRIGSMSGLGC; ends and bridges not checked; cysteine pairing not given here; UniProt P23582 105-126, looked up)
One hour after administering drug, 0.1% solution, 50 μl instilled once into left eye, vehicle-corrected Schirmer value, average of six samples per group
  Increment of lacrimal fluid (mm): +1.33 mm
rabbits, instillation, result in words
  effect of promoting the lacrimal secretion: excellent effects of promoting the lacrimal secretion
